Test results taken from ChEMBL document CHEMBL5046238, “Synthesis, biological evaluation, and in silico studies of potential activators of apoptosis and carbonic anhydrase inhibitors on isatin-5-sulfonamide scaffold” (Eur J Med Chem, 2022).
The source made the active and inactive calls. The calls are words filed in the database; no cut-off is given here.

What was measured:
[1] = tested on: K562; test: Antiproliferative activity against human K562 cells assessed as growth inhibition measured after 72 hrs by MTT assay; details: K562, 72 h
[2] = tested on: HCT-116; test: Antiproliferative activity against human HCT-116p53KO subline assessed as growth inhibition measured after 72 hrs by MTT assay; details: HCT-116, 72 h
[3] = tested on: HCT-116; test: cells; details: Homo sapiens, HCT-116, 72 h
Description: Antiproliferative activity against human HCT-116 assessed as growth inhibition measured after 72 hrs by MTT assay

[4] = tested on: MDA-MB-231; test: Antiproliferative activity against human MDA-MB-231 cells assessed as growth inhibition under normoxia conditions measured after 72 hrs by MTT assay; details: MDA-MB-231, 72 h
[5] = tested on: T47D; test: Antiproliferative activity against human T47D cells assessed as growth inhibition under normoxia conditions measured after 72 hrs by MTT assay
[6] = tested on: T47D; test: Antiproliferative activity against human T47D cells assessed as growth inhibition under hypoxia conditions measured after 72 hrs by MTT assay
[7] = Antiproliferative activity against human K562/4 cells assessed as growth inhibition measured after 72 hrs by MTT assay; details: K562/4, 72 h
[8] = biological target: Carbonic anhydrase 9 (Homo sapiens, UniProt Q16790); test: Inhibition of human CA9 preincubated for 15 mins by phenol red dye based stopped flow CO2 hydration assay
[9] = tested on: MDA-MB-231; test: Antiproliferative activity against human MDA-MB-231 cells assessed as growth inhibition under hypoxia conditions measured after 72 hrs by MTT assay; details: MDA-MB-231, 72 h
[10] = tested on: MCF7; test: Antiproliferative activity against human MCF7 cells assessed as growth inhibition under hypoxia conditions measured after 72 hrs by MTT assay; details: MCF7, 72 h
[11] = tested on: MCF7; test: Antiproliferative activity against human MCF7 cells assessed as growth inhibition measured after 72 hrs by MTT assay; details: MCF7, 72 h
[12] = Cytotoxicity against human MCF-10A assessed as cell viability under normoxia conditions measured after 72 hrs by MTT assay; format: toxicity, cell-based; details: MCF-10A cells
[13] = Cytotoxicity against human MCF-10A assessed as cell viability under hypoxia conditions measured after 72 hrs by MTT assay; format: toxicity, cell-based; details: MCF-10A cells
[14] = biological target: Carbonic anhydrase 12 (Homo sapiens, UniProt O43570); test: Inhibition of human CA12 preincubated for 15 mins by phenol red based stopped flow CO2 hydration assay
Sequence of Carbonic anhydrase 12 (O43570 whole entry): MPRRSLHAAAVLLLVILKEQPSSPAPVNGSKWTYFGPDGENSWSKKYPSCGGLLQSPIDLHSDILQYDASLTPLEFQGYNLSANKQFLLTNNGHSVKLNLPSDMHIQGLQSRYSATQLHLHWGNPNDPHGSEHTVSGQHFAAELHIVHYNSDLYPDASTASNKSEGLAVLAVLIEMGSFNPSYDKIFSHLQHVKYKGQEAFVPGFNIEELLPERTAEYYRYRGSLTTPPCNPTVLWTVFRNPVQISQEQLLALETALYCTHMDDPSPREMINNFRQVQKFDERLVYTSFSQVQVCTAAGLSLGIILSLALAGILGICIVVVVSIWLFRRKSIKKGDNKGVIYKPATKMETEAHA

[15] = tested on: MCF7; test: Induction of apoptosis in human MCF7 cells assessed as PARP cleavage upto 5 uM measured after 48 hrs by immunoblotting analysis; format: functional, cell-based; details: dose microM <=5, time 48.0 hrs
[16] = tested on: MCF7; test: Induction of apoptosis in human MCF7 cells assessed as decrease in Bcl2 expression upto 5 uM measured after 48 hrs by immunoblotting analysis; format: functional, cell-based; details: dose microM <=5, time 48.0 hrs
[17] = tested on: MCF7; test: Induction of apoptosis in human MCF7 cells assessed as NFkappaB activity upto 5 uM measured after 48 hrs by immunoblotting analysis; format: functional, cell-based; details: dose microM <=5, time 48.0 hrs
[18] = tested on: MCF7; test: Induction of apoptosis in human MCF7 cells assessed as […] in BAD protein expression upto 5 uM measured after 48 hrs by immunoblotting analysis; format: functional, cell-based; details: dose microM <=5, time 48.0 hrs
[19] = tested on: MCF7; test: Induction of apoptosis in human MCF7 cells assessed as decrease in ERalpha protein expression upto 5 uM measured after 48 hrs by immunoblotting analysis; format: functional, cell-based; details: dose microM <=5, time 48.0 hrs

SMILES | IC50 [1] | IC50 [2] | IC50 [3] | IC50 [4] | IC50 [5] | IC50 [6] | IC50 [7] | Ki [8] | IC50 [9] | IC50 [10] | IC50 [11] | IC50 at 72 h [12] | IC50 at 72 h [13] | Ki [14] | Activity [15] | Activity [16] | Activity [17] | Activity [18] | Activity [19]
NS(=O)(=O)c1ccc2c(c1)C(=O)C(=O)N2Cc1ccc(C(F)(F)F)cc1 | 16 µM | 34 µM | 30 µM | 27.1 µM | 22.6 µM | 32.6 µM | 50 µM | 0.811 µM | 16.3 µM | 5.5 µM | 8.2 µM | – | – | – | – | – | – | – | –
COc1ccc(CN2C(=O)C(=O)c3cc(S(N)(=O)=O)ccc32)cc1 | 9 µM | 30 µM | 27 µM | 28.4 µM | 20.7 µM | > 50 µM | 43 µM | 1.03 µM | 40.8 µM | 4.6 µM | 5.1 µM | 4 µM | 3.2 µM | – | – | – | – | – | –
NS(=O)(=O)c1ccc2c(c1)C(=O)C(=O)N2Cc1ccncc1 | > 50 µM | – | – | – | – | – | > 50 µM | 1.68 µM | – | – | > 50 µM | – | – | – | – | – | – | – | –
NS(=O)(=O)c1ccc2c(c1)C(=O)C(=O)N2Cc1ccc(Cl)cc1 | 14 µM | 30 µM | 23 µM | 22 µM | 18.4 µM | 42.5 µM | 50 µM | 0.26 µM | 19.1 µM | 4.9 µM | 6 µM | 6.9 µM | 6.2 µM | – | – | – | – | – | –
COc1cccc2c1C(=O)c1c(O)c3c(c(O)c1C2=O)C[C@@](O)(C(=O)CO)C[C@@H]3O[C@H]1C[C@H](N)[C@H](O)[C@H](C)O1 [DOXORUBICIN] | – | 0.8 µM | 0.3 µM | 0.33 µM | 0.16 µM | 0.18 µM | – | – | 0.25 µM | 0.37 µM | 0.31 µM | 0.047 µM | 0.051 µM | – | – | – | – | – | –
NS(=O)(=O)c1ccc2c(c1)C(=O)C(=O)N2Cc1cccc(C(F)(F)F)c1 | 9.8 µM | 30 µM | 17.7 µM | 14.2 µM | 6.3 µM | > 50 µM | 19.8 µM | 0.244 µM | 17.6 µM | 5.9 µM | 8.4 µM | – | – | > 10 µM | – | – | – | – | –
O=C1C(=O)N(Cc2ccc(Cl)c(Cl)c2)c2ccccc21 | 20 µM | > 50 µM | 38 µM | > 50 µM | – | – | 48 µM | – | > 50 µM | > 50 µM | > 50 µM | – | – | – | Active | Active | inactive | Active | inactive
NS(=O)(=O)c1ccc2c(c1)C(=O)C(=O)N2Cc1ccccc1F | 18 µM | – | – | – | – | – | 20 µM | 1.11 µM | – | – | 8.7 µM | – | – | – | – | – | – | – | –
NS(=O)(=O)c1ccc2c(c1)C(=O)C(=O)N2Cc1cc(F)cc(F)c1 | 35 µM | – | – | – | – | – | 37 µM | 1.32 µM | – | – | 26.5 µM | – | – | – | – | – | – | – | –
NS(=O)(=O)c1ccc2c(c1)C(=O)C(=O)N2Cc1cc(C(F)(F)F)ccc1F | 9 µM | – | – | – | – | – | 19.8 µM | 0.211 µM | – | – | 12 µM | – | – | > 10 µM | – | – | – | – | –
Cc1ccc(CN2C(=O)C(=O)c3cc(S(N)(=O)=O)ccc32)cc1C | 8 µM | 15 µM | 17 µM | 7.4 µM | 9.4 µM | 11.1 µM | 17 µM | 0.276 µM | 9.4 µM | 3.9 µM | 4.4 µM | 6.2 µM | 6 µM | – | – | – | – | – | –
NS(=O)(=O)c1ccc2c(c1)C(=O)C(=O)N2CCc1ccccc1 | 17.2 µM | – | – | – | – | – | 36 µM | 1.81 µM | – | – | 31.8 µM | – | – | – | – | – | – | – | –
NS(=O)(=O)c1ccc2c(c1)C(=O)C(=O)N2Cc1ccc(F)cc1Cl | 11 µM | – | – | – | – | – | 32 µM | 0.292 µM | – | – | 13.3 µM | – | – | – | – | – | – | – | –
NS(=O)(=O)c1ccc2c(c1)C(=O)C(=O)N2Cc1cccc(F)c1 | 15.5 µM | – | – | – | – | – | 50 µM | 2.53 µM | – | – | 26.8 µM | – | – | > 10 µM | – | – | – | – | –
NS(=O)(=O)c1ccc2c(c1)C(=O)C(=O)N2Cc1c(F)cccc1Cl | 14.5 µM | – | – | – | – | – | 18 µM | 0.204 µM | – | – | 12.8 µM | – | – | – | – | – | – | – | –
NS(=O)(=O)c1ccc2c(c1)CCC2NC(=O)c1c(F)c(F)c(F)c(F)c1F (centres undefined) | 12.5 µM | 45 µM | 18 µM | 26.6 µM | > 50 µM | > 50 µM | 18 µM | – | 25.7 µM | 13.1 µM | 9.2 µM | > 50 µM | > 50 µM | – | – | – | – | – | –
NS(=O)(=O)c1ccc2c(c1)C(=O)C(=O)N2 | > 50 µM | – | – | – | – | – | > 50 µM | 1.46 µM | – | – | > 50 µM | – | – | – | – | – | – | – | –
NS(=O)(=O)c1ccc2c(c1)C(=O)C(=O)N2Cc1ccc(F)cc1 | 36 µM | – | – | – | – | – | > 50 µM | 0.24 µM | – | – | 17.3 µM | – | – | – | – | – | – | – | –
NS(=O)(=O)c1ccc2c(c1)C(=O)C(=O)N2Cc1ccc(Cl)c(Cl)c1 | 17 µM | 31 µM | 32 µM | 21.8 µM | 17.1 µM | > 50 µM | > 50 µM | 1.46 µM | 18.5 µM | 5.9 µM | 6.1 µM | 6.6 µM | 7.3 µM | – | – | – | – | – | –
NS(=O)(=O)c1ccc2c(c1)C(=O)C(=O)N2Cc1ccc([N+](=O)[O-])cc1 | > 50 µM | – | – | – | – | – | > 50 µM | 2.04 µM | – | – | > 50 µM | – | – | – | – | – | – | – | –
NS(=O)(=O)c1ccc2c(c1)C(=O)C(=O)N2Cc1ccccc1 | 18 µM | – | – | – | – | – | > 50 µM | 1.53 µM | – | – | 20.1 µM | – | – | – | – | – | – | – | –
NS(=O)(=O)c1ccc2c(c1)C(=O)C(=O)N2Cc1c(F)c(F)c(F)c(F)c1F | 8 µM | – | – | – | – | – | > 50 µM | 0.195 µM | – | – | 10.2 µM | – | – | – | – | – | – | – | –
NS(=O)(=O)c1ccc2c(c1)C(=O)C(=O)N2Cc1ccc(Cl)cc1Cl | 8.8 µM | 20 µM | 17.5 µM | 7 µM | 12 µM | 21.8 µM | 18 µM | 0.163 µM | 8.4 µM | 5.6 µM | 7.8 µM | – | – | – | – | – | – | – | –
NS(=O)(=O)c1ccc2c(c1)C(=O)C(=O)N2Cc1c(F)cccc1F | 17 µM | – | – | – | – | – | 40 µM | 1.03 µM | – | – | 22.7 µM | – | – | – | – | – | – | – | –
